Data as given in patent US20020082224A1, “NON-IMMUNOGENIC PRODRUGS AND SELECTABLE MARKERS FOR USE IN GENE THERAPY” (priority 1997, published 2002).

How the values were obtained:
[1] = tested on: HT1080 cells; experiment: Tumor growth in nude mice inoculated with parental HT1080 cells, dosed with EP; assay type: in vivo, nude mice (Balb/c); conditions: s.c. inoculation of 5e5 cells, EP dosed 2-10 days after inoculation
Procedure: (§1) hPLAP is able to convert the prodrugs, mitomycin phosphate (MOP) and etoposide phosphate (EP), into an active mitomycin C derivative, mitomycin alcohol, and etoposide. 5e5 HT1080 cells or HT/hPLAP cells (HT1080 cells stably expressing hPLAP) are inoculated subcutaneously into nude mice (Balb/c). Tumor development occurs in 7-14 days. Etoposide phosphate is prepared by the method of […] et al., Cancer Res. 49:5789-92, 1988, or obtained from a pharmacy (e.g., manufactured by Bristol-Myers Squibb). Animals are dosed with EP as described ([…] et al., 1988) 2-10 days after inoculation with cells.

[2] = tested on: HT/hPLAP cells (HT1080 cells stably expressing hPLAP); experiment: Tumor growth in nude mice inoculated with HT/hPLAP cells, dosed with EP; assay type: in vivo, nude mice (Balb/c)
Procedure: as §1

[3] = tested on: acute myeloblastic leukemia (AML); conditions: as a single agent; % of patients; cited from earlier work
[4] = cited from earlier work

| Compound | effect on tumors from parental HT1080 cells [1] | specificity of EP effect, HT1080 cells in one flank and HT/hPLAP cells in the contralateral flank ([2]; both cell types in the same animal) | effect on tumor growth of HT/hPLAP cells ([2]; s.c. inoculation of 5e5 cells, EP dosed 2-10 days after inoculation) | remission induced in patients with acute myeloblastic leukemia (AML) [3] [%] | concentrations in the CSF relative to plasma ([4]; IV infusion, after 2 hours of continuous infusion) [%] | Plasma half life ([4]; due to rapid deamination) |
| --- | --- | --- | --- | --- | --- | --- |
| COc1cc([C@@H]2c3cc4c(cc3[C@@H](O[C@@H]3O[C@@H]5CO[C@@H](C)O[C@H]5[C@H](O)[C@H]3O)[C@H]3COC(=O)[C@H]23)OCO4)cc(OC)c1OP(=O)(O)O [EP, etoposide phosphate] | resistant to the effect of EP | specific for cells expressing HPLAP | dose-dependent reduction in tumor growth | – | – | – |
| Nc1ccn([C@@H]2O[C@H](CO)[C@@H](O)[C@@H]2O)c(=O)n1 [ara-C, cytosine arabinoside] | – | – | – | 50 | 50 | less than 20 minutes |
